Laboratory results reported in US11331290B2, “Niclosamide for the treatment of cancer metastasis” (Max-Delbrück-Centrum für Molekulare Medizin in der …, priority 2011, dated 2022).

Assays:
HCT116-S100A4 cells = assay: Soft agar colony formation assay; format: cell-based, human; conditions: 1 μM, 7 days
Description: (§1) Analysis of anchorage-independent cell proliferation was achieved by soft agar colony formation assay. A bottom layer containing 0.5% w/v agarose, RPMI-1640 medium, 10% FBS and 1 μM niclosamide or the respective amount of DMSO was added to a 6 cm Ø dish and incubated at room temperature under sterile conditions for 10 minutes. Onto the solidified bottom layer a top layer was added containing 8×10^3 cells, 0.33% w/v agarose, RPMI-1640 medium, 10% FBS and 1 μM niclosamide or the respective amount of DMSO. Cells were seeded as single cells into the soft agar and incubated in a humidified incubator at 37° C. and 5% CO2 for 7 days. Colony formation was visualized by 10× magnification for an overview and 40× magnification for single colonies in the Leica DM IL light microscope (Leica Microsystems). Colony quantification was achieved by counting cell colonies of more than 4 cells in 10 squares of […]. Colony formation experiments were repeated twice, each in triplicates.
(§2) (A) Cell migration of HCT116-vector and HCT116-S100A4 cells exposed to niclosamide treatment. Cells were treated with 1 μM niclosamide for 24 hours and migration rates were measured with Boyden chamber assay. (B) Cell invasion of HCT116-vector and HCT116-S100A4 cells exposed to niclosamide treatment. Cells were treated with 1 μM niclosamide for 24 hours and cell invasion was determined by Boyden chamber assay. (C) Directed migration of HCT116-vector and HCT116-S100A4 cells exposed to niclosamide treatment analyzed by wound healing assay. Wounds of 300 μM width were set in a 60% confluent monolayer of HCT116-vector or HCT116-S100A4 cells on day 1. Cells were treated daily with 1 μM niclosamide for 4 days. Microphotographs of day 4 are presented here with black lines indicating margins of entered wound of day 1; scale bar represents 200 μM. Data represents three independent experiments. (D) Adhesive cell proliferation of HCT116-vector and HCT116-S100A4 cells exposed to niclosamide treatment. Cells were treated daily with 1 μM niclosamide and cell viability was determined with MTT assay. (E) Anchorage-independent cell growth of HCT116-vector and HCT116-S100A4 cells exposed to niclosamide treatment. Cells were plated as single cells into 0.33% (w/v) agarose and treatment (solvent or 1 μM niclosamide) containing medium. After 7 days colonies were visualized by light microscopy at 10× (overview) and 40× (single colony) magnification. (F) Quantification of colonies formed. Number of colonies (of more than 4 cells) was counted and normalized to solvent-treated HCT116-vector cells. Differences of niclosamide vs. solvent-treated cells were analyzed by Student's t test. Data represent mean±SE (n>2) of at least two independent experiments each performed in at least duplicate.

HCT116-vector cells = assay: Soft agar colony formation assay; format: cell-based, human; conditions: 1 μM, 7 days
Description: as §1, §2

[1] = humans, taken orally; cited from earlier work

O=C(Nc1ccc([N+](=O)[O-])cc1Cl)c1cc(Cl)ccc1O [niclosamide, 2′,5-dichloro-4′-nitrosalicylanilide]
colony size (HCT116-S100A4 cells): clearly reduced
number of colonies, mean difference control vs niclosamide (HCT116-S100A4 cells): 100.7%
number of colonies, mean % of solvent-treated HCT116-vector cells (HCT116-S100A4 cells; solvent control 105.8%): 5.0%
colony size (HCT116-vector cells): clearly reduced
number of colonies, mean % of solvent-treated HCT116-vector cells (HCT116-vector cells): 6.8%
number of colonies, mean difference control vs niclosamide (HCT116-vector cells): 93.2%
side effects [1]: only slight side effects
